Test results taken from ChEMBL document CHEMBL4808232, “Discovery of IDO1 inhibitors containing a decahydroquinoline, decahydro-1,6-naphthyridine, or octahydro-1H-pyrrolo[3,2-c]pyridine scaffold” (Bioorg Med Chem Lett, 2021).
Activity calls are given as the source filed them. The rule behind the calls is not given here.

Tests used:
[1] = Clearance in male Wistar Han rats at 0.05 mg/kg, iv; assay type: ADME, organism-based; conditions: rat, in vivo
[2] = MRT in male Wistar Han rat at 0.05 mg/kg, iv; assay type: ADME, organism-based; conditions: in vivo
[3] = target: T1, Indoleamine 2,3-dioxygenase 1 (Homo sapiens, UniProt P14902); assay: Inhibition of IDO1 in human whole blood; assay type: tissue-based
T1 sequence (P14902 whole entry): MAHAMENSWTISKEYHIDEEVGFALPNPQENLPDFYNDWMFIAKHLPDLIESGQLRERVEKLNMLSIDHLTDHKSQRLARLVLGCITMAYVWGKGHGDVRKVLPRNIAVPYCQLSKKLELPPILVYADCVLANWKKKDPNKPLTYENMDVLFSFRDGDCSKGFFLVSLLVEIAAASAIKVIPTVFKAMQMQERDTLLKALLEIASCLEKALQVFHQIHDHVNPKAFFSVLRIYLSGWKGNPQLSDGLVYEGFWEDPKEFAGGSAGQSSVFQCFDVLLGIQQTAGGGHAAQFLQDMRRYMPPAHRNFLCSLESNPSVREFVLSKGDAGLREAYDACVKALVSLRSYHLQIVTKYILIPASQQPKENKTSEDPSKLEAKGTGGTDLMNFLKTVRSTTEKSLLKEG

[4] = Unbound clearance in male Wistar Han rat at 0.05 mg/kg, iv; assay type: ADME, organism-based; conditions: in vivo
[5] = target: T1, Indoleamine 2,3-dioxygenase 1; assay: Inhibition of IDO1 in human whole blood assessed as unbound concentration; assay type: tissue-based
[6] = target: T1, Indoleamine 2,3-dioxygenase 1; assay: Inhibition of IDO1 in human HeLa cells assessed as production of N-formylkynurenine using tryptophan as substrate in presence of inactivated fetal bovine serum; assay type: cell-based
[7] = target: Tryptophan 2,3-dioxygenase (Homo sapiens) (UniProt P48775); assay: Inhibition of TDO in human SW48 cells; assay type: cell-based
Chain of Tryptophan 2,3-dioxygenase (Homo sapiens) (P48775 whole entry, looked up): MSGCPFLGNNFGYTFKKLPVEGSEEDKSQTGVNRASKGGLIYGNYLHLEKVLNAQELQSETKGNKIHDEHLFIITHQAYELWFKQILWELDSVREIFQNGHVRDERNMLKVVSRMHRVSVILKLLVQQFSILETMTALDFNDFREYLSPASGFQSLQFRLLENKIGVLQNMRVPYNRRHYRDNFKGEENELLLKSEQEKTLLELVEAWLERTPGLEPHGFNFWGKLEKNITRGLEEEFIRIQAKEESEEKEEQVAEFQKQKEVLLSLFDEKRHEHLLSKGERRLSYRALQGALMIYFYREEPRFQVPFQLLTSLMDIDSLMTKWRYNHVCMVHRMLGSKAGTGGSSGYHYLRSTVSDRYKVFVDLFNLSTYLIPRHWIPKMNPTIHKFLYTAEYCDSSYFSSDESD

[8] = male, Wistar Han, read-out: MRT

| SMILES | IC50 [6] [nM] | inhibition [7] | further results |
| --- | --- | --- | --- |
| C[C@@H](C(=O)Nc1ccc(F)cc1)C1CCC2C(CCCN2C(=O)c2cccc(Cl)c2)C1 (stereo in doubt; 3) [listing 1 of 2 here] | 1 |  | clearance [1]: 51 mL/min/kg; MRT [2, 8]: 1.6 h; IC50 [3]: 32 nM; CL free [4]: 4427 mL/min/kg; IC50 [5]: 0.13 nM |
| C[C@@H](C(=O)Nc1ccc(F)cc1)C1CCC2C(CCCN2C(=O)c2cccc(Cl)c2)C1 (stereo in doubt; 3) [listing 2 of 2 here] |  | inactive |  |
| C[C@@H](C(=O)Nc1ccc(F)cc1)C1CCC2C(CCCN2C(=O)c2cccc(Cl)c2)C1 (stereo in doubt; 4) [listing 1 of 2 here] | 1.9 |  |  |
| C[C@@H](C(=O)Nc1ccc(F)cc1)C1CCC2C(CCCN2C(=O)c2cccc(Cl)c2)C1 (stereo in doubt; 4) [listing 2 of 2 here] |  | inactive |  |
| C[C@@H](C(=O)Nc1ccc(F)cc1)C1CCC2C(CCCN2C(=O)c2cccc(Cl)c2)C1 (stereo in doubt; 5) [listing 1 of 2 here] | 2.1 |  | IC50 [3]: 312 nM |
| C[C@@H](C(=O)Nc1ccc(F)cc1)C1CCC2C(CCCN2C(=O)c2cccc(Cl)c2)C1 (stereo in doubt; 5) [listing 2 of 2 here] |  | inactive |  |
| C[C@@H](C(=O)Nc1ccc(F)cc1)C1CCC2C(CCCN2C(=O)c2cccc(Cl)c2)C1 (stereo in doubt; 6) [listing 1 of 2 here] | 2.3 |  | MRT ([2]; 0.05 mg/kg): 1.1 h; CL free [4]: 4484 mL/min/kg |
| C[C@@H](C(=O)Nc1ccc(F)cc1)C1CCC2C(CCCN2C(=O)c2cccc(Cl)c2)C1 (stereo in doubt; 6) [listing 2 of 2 here] |  | inactive |  |
| O=C(c1cccc(Cl)c1)N1CCCC2CC(C3(C(=O)Nc4ccc(F)cc4)CCC3)CCC21 (stereo in doubt; 7) [listing 1 of 2 here] | 2.4 |  | IC50 [3]: 123 nM; IC50 [5]: 0.98 nM |
| O=C(c1cccc(Cl)c1)N1CCCC2CC(C3(C(=O)Nc4ccc(F)cc4)CCC3)CCC21 (stereo in doubt; 7) [listing 2 of 2 here] |  | inactive |  |
| O=C(c1cccc(Cl)c1)N1CCCC2CC(C3(C(=O)Nc4ccc(F)cc4)CCC3)CCC21 (stereo in doubt; 8) [listing 1 of 2 here] | 3 |  |  |
| O=C(c1cccc(Cl)c1)N1CCCC2CC(C3(C(=O)Nc4ccc(F)cc4)CCC3)CCC21 (stereo in doubt; 8) [listing 2 of 2 here] |  | inactive |  |
| O=C(c1cccc(Cl)c1)N1CCCC2CC(C3(C(=O)Nc4ccc(F)cc4)CCC3)CCC21 (stereo in doubt; 9) [listing 1 of 2 here] | 7 |  |  |
| O=C(c1cccc(Cl)c1)N1CCCC2CC(C3(C(=O)Nc4ccc(F)cc4)CCC3)CCC21 (stereo in doubt; 9) [listing 2 of 2 here] |  | inactive |  |
| O=C(c1cccc(Cl)c1)N1CCCC2CC(C3(C(=O)Nc4ccc(F)cc4)CCC3)CCC21 (stereo in doubt; 10) [listing 1 of 2 here] | 14 |  |  |
| O=C(c1cccc(Cl)c1)N1CCCC2CC(C3(C(=O)Nc4ccc(F)cc4)CCC3)CCC21 (stereo in doubt; 10) [listing 2 of 2 here] |  | inactive |  |
| O=C(C1CC1)N1CCCC2CC(C3(C(=O)Nc4ccc(F)cc4)CCC3)CCC21 (stereo in doubt; 11) [listing 1 of 2 here] | 107 |  |  |
| O=C(C1CC1)N1CCCC2CC(C3(C(=O)Nc4ccc(F)cc4)CCC3)CCC21 (stereo in doubt; 11) [listing 2 of 2 here] |  | inactive |  |
| O=C(C1CC1)N1CCCC2CC(C3(C(=O)Nc4ccc(F)cc4)CCC3)CCC21 (stereo in doubt; 12) [listing 1 of 2 here] | 1.5 |  | IC50 [3]: 15 nM; IC50 [5]: 0.86 nM |
| O=C(C1CC1)N1CCCC2CC(C3(C(=O)Nc4ccc(F)cc4)CCC3)CCC21 (stereo in doubt; 12) [listing 2 of 2 here] |  | inactive |  |

| SMILES | IC50 [6] [nM] | inhibition [7] | further results |
| --- | --- | --- | --- |
| O=C(C1CC1)N1CCCC2CC(C3(C(=O)Nc4ccc(F)cc4)CCC3)CCC21 (stereo in doubt; 13) [listing 1 of 2 here] | 19 |  |  |
| O=C(C1CC1)N1CCCC2CC(C3(C(=O)Nc4ccc(F)cc4)CCC3)CCC21 (stereo in doubt; 13) [listing 2 of 2 here] |  | inactive |  |
| O=C(C1CC1)N1CCCC2CC(C3(C(=O)Nc4ccc(F)cc4)CCC3)CCC21 (stereo in doubt; 14) [listing 1 of 2 here] | 115 |  |  |
| O=C(C1CC1)N1CCCC2CC(C3(C(=O)Nc4ccc(F)cc4)CCC3)CCC21 (stereo in doubt; 14) [listing 2 of 2 here] |  | inactive |  |
| Cc1nccc(N2CCCC3CC(C4(C(=O)Nc5ccc(F)cc5)CCC4)CCC32)n1 (stereo in doubt; 15) [listing 1 of 2 here] | 1.6 |  | MRT [2, 8]: 1.7 h; IC50 [3]: 10 nM; CL free [4]: 1309 mL/min/kg; IC50 [5]: 0.29 nM |
| Cc1nccc(N2CCCC3CC(C4(C(=O)Nc5ccc(F)cc5)CCC4)CCC32)n1 (stereo in doubt; 15) [listing 2 of 2 here] |  | inactive |  |
| Cc1nccc(N2CCCC3CC(C4(C(=O)Nc5ccc(F)cc5)CCC4)CCC32)n1 (stereo in doubt; 16) [listing 1 of 2 here] | 4.2 |  | MRT ([2]; 0.05 mg/kg): 1.8 h; CL free [4]: 1884 mL/min/kg |
| Cc1nccc(N2CCCC3CC(C4(C(=O)Nc5ccc(F)cc5)CCC4)CCC32)n1 (stereo in doubt; 16) [listing 2 of 2 here] |  | inactive |  |
| Cc1nccc(N2CCCC3CC(C4(C(=O)Nc5ccc(F)cc5)CCC4)CCC32)n1 (stereo in doubt; 17) [listing 1 of 2 here] | 32 |  |  |
| Cc1nccc(N2CCCC3CC(C4(C(=O)Nc5ccc(F)cc5)CCC4)CCC32)n1 (stereo in doubt; 17) [listing 2 of 2 here] |  | inactive |  |
| Cc1nccc(N2CCCC3CC(C4(C(=O)Nc5ccc(F)cc5)CCC4)CCC32)n1 (stereo in doubt; 18) [listing 1 of 2 here] | 5.2 |  |  |
| Cc1nccc(N2CCCC3CC(C4(C(=O)Nc5ccc(F)cc5)CCC4)CCC32)n1 (stereo in doubt; 18) [listing 2 of 2 here] |  | inactive |  |
| O=C(Nc1ccc(F)cc1)C1(C2CCC3C(CCCN3c3ccnc(C(F)(F)F)n3)C2)CCC1 (stereo in doubt; 19) [listing 1 of 2 here] | 1.9 |  | MRT [2, 8]: 1.9 h; CL free [4]: 13321 mL/min/kg |
| O=C(Nc1ccc(F)cc1)C1(C2CCC3C(CCCN3c3ccnc(C(F)(F)F)n3)C2)CCC1 (stereo in doubt; 19) [listing 2 of 2 here] |  | inactive |  |
| O=C(Nc1ccc(F)cc1)C1(C2CCC3C(CCCN3c3ccnc(C(F)(F)F)n3)C2)CCC1 (stereo in doubt; 20) [listing 1 of 2 here] | 1.9 |  | MRT ([2]; 0.05 mg/kg): 2.7 h; IC50 [3]: 48 nM; CL free [4]: 9879 mL/min/kg; IC50 [5]: 0.1 nM |
| O=C(Nc1ccc(F)cc1)C1(C2CCC3C(CCCN3c3ccnc(C(F)(F)F)n3)C2)CCC1 (stereo in doubt; 20) [listing 2 of 2 here] |  | inactive |  |
| O=C(Nc1ccc(F)cc1)C1(C2CCC3C(CCCN3c3ccnc(C(F)(F)F)n3)C2)CCC1 (stereo in doubt; 21) [listing 1 of 2 here] | 2.6 |  | MRT ([2]; 0.05 mg/kg): 2.9 h; CL free [4]: 7183 mL/min/kg |
| O=C(Nc1ccc(F)cc1)C1(C2CCC3C(CCCN3c3ccnc(C(F)(F)F)n3)C2)CCC1 (stereo in doubt; 21) [listing 2 of 2 here] |  | inactive |  |
| O=C(Nc1ccc(F)cc1)C1(C2CCC3C(CCCN3c3ccnc(C(F)(F)F)n3)C2)CCC1 (stereo in doubt; 22) [listing 1 of 2 here] | 3.2 |  | MRT ([2]; 0.05 mg/kg): 3.5 h; CL free [4]: 5951 mL/min/kg |
| O=C(Nc1ccc(F)cc1)C1(C2CCC3C(CCCN3c3ccnc(C(F)(F)F)n3)C2)CCC1 (stereo in doubt; 22) [listing 2 of 2 here] |  | inactive |  |

| SMILES | IC50 [6] [nM] | inhibition [7] | further results |
| --- | --- | --- | --- |
| O=C(CN1CCC2C(CCCN2C(=O)c2cccc(Cl)c2)C1)Nc1ccc(F)cc1 (stereo in doubt; 23) | 3.9 |  |  |
| O=C(CN1CCC2C(CCCN2C(=O)c2cccc(Cl)c2)C1)Nc1ccc(F)cc1 (stereo in doubt; 24) | 2 |  | clearance [1]: 61 mL/min/kg; MRT [2, 8]: 1.6 h; CL free [4]: 1401 mL/min/kg |
| CC(C(=O)Nc1ccc(Cl)cc1)N1CCC2C(CCCN2C(=O)OC2CC2)C1 (stereo in doubt; 25) | 3.7 |  | IC50 [3]: 293 nM |
| CC(C(=O)Nc1ccc(Cl)cc1)N1CCC2C(CCCN2C(=O)OC2CC2)C1 (stereo in doubt; 26) | 9.1 |  |  |
| CC(C(=O)Nc1ccc(Cl)cc1)N1CCC2C(CCCN2C(=O)OC2CC2)C1 (stereo in doubt; 28) | 32 |  |  |
| Cc1nccc(N2CCCC3CN(C(C)C(=O)Nc4ccc(Cl)cc4)CCC32)n1 (stereo in doubt; 29) | 302 |  |  |
| Cc1nccc(N2CCCC3CN(C(C)C(=O)Nc4ccc(Cl)cc4)CCC32)n1 (stereo in doubt; 30) | 40 |  |  |
| Cc1nccc(N2CCCC3CN(C(C)C(=O)Nc4ccc(Cl)cc4)CCC32)n1 (stereo in doubt; 31) | 2.9 |  | IC50 [3]: 130 nM |
| Cc1nccc(N2CCCC3CN(C(C)C(=O)Nc4ccc(Cl)cc4)CCC32)n1 (stereo in doubt; 32) | 12 |  | clearance [1]: 31 mL/min/kg; MRT [2, 8]: 2.9 h; CL free [4]: 2381 mL/min/kg |
| CC(C(=O)Nc1ccc(Cl)cc1)N1CCC2C(CCCN2c2ccnc(C(F)(F)F)n2)C1 (stereo in doubt; 33) | 15 |  | clearance [1]: 19 mL/min/kg; MRT [2, 8]: 3 h; CL free [4]: 8439 mL/min/kg |
| CC(C(=O)Nc1ccc(Cl)cc1)N1CCC2C(CCCN2c2ccnc(C(F)(F)F)n2)C1 (stereo in doubt; 34) | 3.6 |  | IC50 [3]: 809 nM; CL free [4]: 13004 mL/min/kg |
| CC(C(=O)Nc1ccc(Cl)cc1)N1CCC2C(CCCN2c2ccnc(C(F)(F)F)n2)C1 (stereo in doubt; 35) | 430 |  |  |
| CC(C(=O)Nc1ccc(Cl)cc1)N1CCC2C(CCCN2c2ccnc(C(F)(F)F)n2)C1 (stereo in doubt; 36) | 5.4 |  | MRT ([2]; 0.05 mg/kg): 3.7 h; IC50 [3]: 1000 nM; CL free [4]: 27767 mL/min/kg |
| CC(C(=O)Nc1ccc(Cl)cc1)N1CCC2C(CCN2C(=O)OC2CC2)C1 (stereo in doubt; 37) | 11 |  |  |
| CC(C(=O)Nc1ccc(Cl)cc1)N1CCC2C(CCN2C(=O)OC2CC2)C1 (stereo in doubt; 38) | 16 |  | MRT [2, 8]: 1.5 h; CL free [4]: 2394 mL/min/kg |
| CC(C(=O)Nc1ccc(Cl)cc1)N1CCC2C(CCN2C(=O)OC2CC2)C1 (stereo in doubt; 39) | 184 |  | MRT ([2]; 0.05 mg/kg): 2.8 h; CL free [4]: 664 mL/min/kg |
| CC(C(=O)Nc1ccc(Cl)cc1)N1CCC2C(CCN2C(=O)OC2CC2)C1 (stereo in doubt; 40) | 1150 |  |  |
| Cc1nccc(-n2ncc3c2CCN(C(C)C(=O)Nc2ccc(Cl)cc2)C3)n1 (stereo in doubt; 41) | 1050 |  |  |
| Cc1nccc(-n2ncc3c2CCN(C(C)C(=O)Nc2ccc(Cl)cc2)C3)n1 (stereo in doubt; 42) | 27700 |  |  |
